This passage reports chromatographic logP, LogP and pest or weed control results from US20200017467A1, “NOVEL TRIAZOLE DERIVATIVES” (BAYER CROPSCIENCE AKTIENGESELLSCHAFT, priority 2017, published 2020).

A short description of series [1]: Log P by HPLC on reversed phase columns (EEC directive 79/831 Annex V.A8). It counts as physicochemical. The conditions noted are these: method [a]: LC-UV, acidic range, 0.1% formic acid in water and acetonitrile; for chromatographic logP: reversed phase HPLC columns. How it is done: Log P values: Measurement of Log P values was performed according to EEC directive 79/831 Annex V.A8 by HPLC (High Performance Liquid Chromatography) on reversed phase columns with the following methods: • ^[a] Log P value is determined by measurement of LC-UV, in an acidic range, with 0.1% formic acid in water and acetonitrile as eluent (linear gradient from 10% acetonitrile to 95% acetonitrile). • ^[b] Log P value is determined by measurement of LC-UV, in a neutral range, with 0.001 molar ammonium acetate solution in water and acetonitrile as eluent (linear gradient from 10% acetonitrile to 95% acetonitrile). • ^[c] Log P value is determined by measurement of LC-UV, in an acidic range, with 0.1% phosphoric acid and acetonitrile as eluent (linear gradient from 10% acetonitrile to 95% acetonitrile). If more than one Log P value is available within the same method, all the values are given and separated by “+”. Calibration was done with straight-chain alkan2-ones (with 3 to 16 carbon atoms) with known Log P values (measurement of Log P values using retention times with linear interpolation between successive alkanones). Lambda-max-values were determined using UV-spectra from 200 nm to 400 nm and the peak values of the chromatographic signals.

Series [2] deals with Puccinia recondita. Description: In vivo preventive test on Puccinia recondita (brown rust on wheat). Particulars: 264 h, 500 ppm of active ingredient, preventive spray, evaluated 11 days after inoculation, read-out: efficacy. How it is done:
(§1) Example A: In Vivo Preventive Test on Puccinia recondita (Brown Rust on Wheat) [table] The active ingredients were made soluble and homogenized in a mixture of dimethyl sulfoxide/acetone//Tween® 80 and then diluted in water to the desired concentration. Young plants of wheat were treated by spraying the active ingredient prepared as described above. Control plants were treated only with an aqueous solution of acetone/dimethyl sulfoxide/Tween® 80. After 24 hours, the plants were contaminated by spraying the leaves with an aqueous suspension of Puccinia recondita spores. The contaminated wheat plants were incubated for 24 hours at 20° C. and at 100% relative humidity and then for 10 days at 20° C. and at 70-80% relative humidity. The test was evaluated 11 days after the inoculation. 0% means an efficacy which corresponds to that of the control plants while an efficacy of 100% means that no disease was observed.

Series [3] relates to Septoria tritici. Description: In vivo preventive test on Septoria tritici (leaf spot on wheat). Particulars: Zymoseptoria tritici, 576 h, 500 ppm of active ingredient, preventive spray, evaluated 24 days after inoculation, read-out: efficacy. How it is done: Example B: In Vivo Preventive Test on Septoria tritici (Leaf Spot on Wheat) [table] The active ingredients were made soluble and homogenized in a mixture of dimethyl sulfoxide/acetone//Tween® 80 and then diluted in water to the desired concentration. Young plants of wheat were treated by spraying the active ingredient prepared as described above. Control plants were treated only with an aqueous solution of acetone/dimethyl sulfoxide/Tween® 80. After 24 hours, the plants were contaminated by spraying the leaves with an aqueous suspension of Septoria tritici spores. The contaminated wheat plants were incubated for 72 hours at 18° C. and at 100% relative humidity and then for 21 days at 20° C. and at 90% relative humidity. The test was evaluated 24 days after the inoculation. 0% means an efficacy which corresponds to that of the control plants while an efficacy of 100% means that no disease was observed.

Series [4] relates to Sphaerotheca fuliginea. Description: In vivo preventive test on Sphaerotheca fuliginea (powdery mildew on cucurbits). Particulars: Podosphaera fuliginea, 360 h; 500 ppm of active ingredient; gherkin, preventive spray, evaluated 15 days after inoculation; read-out: efficacy. How it is done: Example C: In Vivo Preventive Test on Sphaerotheca fuliginea (Powdery Mildew on Cucurbits) [table] The active ingredients were made soluble and homogenized in a mixture of dimethyl sulfoxide/acetone//Tween® 80 and then diluted in water to the desired concentration. Young plants of gherkin were treated by spraying the active ingredient prepared as described above. Control plants were treated only with an aqueous solution of acetone/dimethyl sulfoxide/Tween® 80. After 24 hours, the plants were contaminated by spraying the leaves with an aqueous suspension of Sphaerotheca fuliginea spores. The contaminated gherkin plants were incubated for 72 hours at 18° C. and at 100% relative humidity and then for 12 days at 20° C. and at 70-80% relative humidity. The test was evaluated 15 days after the inoculation. 0% means an efficacy which corresponds to that of the control plants while an efficacy of 100% means that no disease was observed.

Series [5] relates to Uromyces appendiculatus. Description: In vivo preventive test on Uromyces appendiculatus (bean rust). Particulars: 264 h, 500 ppm of active ingredient, preventive spray, evaluated 11 days after inoculation, read-out: efficacy. How it is done:
as §1, with “D:” for “A:”, “Uromyces appendiculatus (Bean Rust)” for “Puccinia recondita (Brown Rust on Wheat)”, “bean” for “wheat”, “Uromyces appendiculatus” for “Puccinia recondita”

In series [6] the test system is Blumeria graminis fsp. hordei. Put plainly: In vivo preventive Blumeria test (barley). The conditions noted are these: 168 h, 500 ppm of active ingredient, preventive spray, evaluated 7 days after inoculation, read-out: efficacy. How it is done:
Example E: In Vivo Preventive Blumeria Test (Barlev) [table] To produce a suitable preparation of active compound, 1 part by weight of active compound or active compound combination was mixed with the stated amounts of solvent and emulsifier, and the concentrate was diluted with water to the desired concentration. To test for preventive activity, young plants were sprayed with the preparation of active compound or active compound combination at the stated rate of application. After the spray coating had been dried, the plants were dusted with spores of Blumeria graminis fsp. hordei. The plants were placed in the greenhouse at a temperature of approximately 18° C. and a relative atmospheric humidity of approximately 80% to promote the development of mildew pustules. The test was evaluated 7 days after the inoculation. 0% means an efficacy which corresponds to that of the untreated control, while an efficacy of 100% means that no disease is observed.

In general, chromatographic logP refers to a lipophilicity value derived from retention on a column. Higher therefore signals higher lipophilicity.

Molecules are shown by their SMILES.

In the case of `CC(=O)c1cnc(Oc2ccc(Cl)nc2)cc1C(F)(F)F` [V-06, 1-[6-[(6-chloro-3-pyridyl)oxy]-4-(trifluoromethyl)-3-pyridyl]ethanone], the chromatographic logP in series [1] (compounds of formula (V)) was found to be 3.
`O=C(CCl)c1ccc(Oc2ccc(Cl)nc2)nc1C(F)(F)F` [VI-05]: in series [1] (compounds of formula (VI)), the LogP is 3.27^[a].
For the compound `CC(=O)c1cnc(Oc2ccc(Cl)nc2)cc1Cl` [V-10], the LogP in series [1] (compounds of formula (V)) was 2.59^[a].
On the same count and under the same terms, under `CC(=O)c1ccc(Oc2ccc(Cl)nc2)nc1C(F)(F)F` [V-05] stands 3.00^[a].
Turning to `OC(Cn1cncn1)c1ccc(Oc2ccc(Cl)nc2)nc1C(F)(F)F` (stereo not drawn) [I-10], the LogP in series [1] (compounds of formula (I)) is 2.07^[a].
With `O=C(Cn1cncn1)c1cnc(Oc2ccc(Br)nc2)cc1C(F)(F)F` [VII-07], in series [1] (compounds of formula (VII)), the LogP is 2.94^[a].
Still for that read-out and setting: then `O=C(Cn1cncn1)c1cnc(Oc2ccc(C(F)(F)F)nc2)cc1C(F)(F)F` [VII-04], with 2.66^[a].
As to `OC(Cn1cncn1)c1ccc(Oc2ccc(Cl)nc2)nc1Cl` (stereo not drawn) [I-11], the LogP in series [1] (compounds of formula (I)) is 1.79^[a].
`CC(=O)c1ccc(Oc2ccc(C(F)(F)F)nc2)nc1C(F)(F)F` [V-02, 1-[2-(trifluoromethyl)-6-[[6-(trifluoromethyl)-3-pyridyl]oxy]-3-pyridyl]ethanone] gave a chromatographic logP in series [1] (compounds of formula (V)) of 3.26.
Regarding `CC(=O)c1cnc(Oc2ccc(C(F)(F)F)nc2)cc1C(F)(F)F` [V-04], the LogP in series [1] (compounds of formula (V)) was 3.44^[a].
Take `O=C(CCl)c1cnc(Oc2ccc(C(F)(F)F)nc2)cc1C(F)(F)F` [VI-04]: the LogP in series [1] (compounds of formula (VI)) is 3.64^[a].
With `OC(Cn1cncn1)c1cnc(Oc2ccc(C(F)(F)F)nc2)cc1C(F)(F)F` (stereo not drawn) [I-08], the LogP in series [1] (compounds of formula (I)) was 2.35^[a].
Turning to `O=C(CCl)c1ccc(Oc2ccc(Br)nc2)nc1C(F)(F)F` [VI-01, 1-[6-[(6-bromo-3-pyridyl)oxy]-2-(trifluoromethyl)-3-pyridyl]-2-chloro-ethanone], the chromatographic logP in series [1] (compounds of formula (VI)) was 3.44.
As for `O=C(CCl)c1ccc(Oc2ccc(Cl)nc2)nc1Cl` [VI-03], the LogP in series [1] (compounds of formula (VI)) is 3.00^[a].
Consider `OC(Cn1cncn1)c1ccc(Oc2ccc(Br)nc2)nc1C(F)(F)F` (stereo not drawn) [I-12, 1-[6-[(6-bromo-3-pyridyl)oxy]-2-(trifluoromethyl)-3-pyridyl]-2-(1,2,4-triazol-1-yl)ethanol], for which the chromatographic logP in series [1] (compounds of formula (I)) was determined as 2.03. In addition, the pest or weed control at 500 ppm in series [2] was in the range of 80 to 89%; in series [3], 90 to 100%; in series [4] it was 90 to 100%; in series [5], 90 to 100%; in series [6], 90 to 100%.
Consider `O=C(CCl)c1ccc(Oc2ccc(C(F)(F)F)nc2)nc1C(F)(F)F` [VI-02, 2-chloro-1-[2-(trifluoromethyl)-6-[[6-(trifluoromethyl)-3-pyridyl]oxy]-3-pyridyl]ethanone], for which the chromatographic logP in series [1] (compounds of formula (VI)) was 3.6.
As for `O=C(Cn1cncn1)c1ccc(Oc2ccc(Cl)nc2)nc1Cl` [VII-03], the LogP in series [1] (compounds of formula (VII)) is 1.99^[a].
The compound `CC(=O)c1ccc(Oc2ccc(Br)nc2)nc1C(F)(F)F` [V-01, 1-[6-[(6-bromo-3-pyridyl)oxy]-2-(trifluoromethyl)-3-pyridyl]ethanone] showed a chromatographic logP in series [1] (compounds of formula (V)) of 3.12.
As for `CC(=O)c1ccc(Oc2ccc(C)nc2)nc1Cl` [V-09], the LogP in series [1] (compounds of formula (V)) is 1.42^[a].
As to `CC(O)(Cn1cncn1)c1ccc(Oc2ccc(Cl)nc2)nc1Cl` (stereo not drawn) [I-03], the LogP in series [1] (compounds of formula (I)) is 2.04^[a].
Turning to `CC(=O)c1ccc(Oc2ccc(F)nc2)nc1Cl` [V-08], the LogP in series [1] (compounds of formula (V)) is 2.39^[a].
Compound `O=C(Cn1cncn1)c1cnc(Oc2ccc(Cl)nc2)cc1C(F)(F)F` [VII-06, 1-[6-[(6-chloro-3-pyridyl)oxy]-4-(trifluoromethyl)-3-pyridyl]-2-(1,2,4-triazol-1-yl)ethanone] came in with a chromatographic logP in series [1] (compounds of formula (VII)) of 2.21. For the same compound, the pest or weed control at 500 ppm in series [3] was in the range of 80 to 89%; in series [4], 90 to 100%.
Consider `O=C(Cn1cncn1)c1ccc(Oc2ccc(Cl)nc2)nc1C(F)(F)F` [VII-05], for which the LogP in series [1] (compounds of formula (VII)) is 2.23^[a].
Consider `O=C(Cn1cncn1)c1ccc(Oc2ccc(C(F)(F)F)nc2)nc1C(F)(F)F` [VII-02, 2-(1,2,4-triazol-1-yl)-1-[2-(trifluoromethyl)-6-[[6-(trifluoromethyl)-3-pyridyl]oxy]-3-pyridyl]ethanone], for which, in series [1] (compounds of formula (VII)), the chromatographic logP came out at 2.43. Also, the pest or weed control at 500 ppm in series [2] was in the range of 80 to 89%; in series [3], 90 to 100%; in series [4], 90 to 100%; in series [5], 90 to 100%.
For the compound `CC(=O)c1cnc(Oc2ccc(Br)nc2)cc1C(F)(F)F` [V-07], in series [1] (compounds of formula (V)), the LogP was 3.17^[a].
As to `O=C(Cn1cncn1)c1ccc(Oc2ccc(Br)nc2)nc1C(F)(F)F` [VII-01, 1-[6-[(6-bromo-3-pyridyl)oxy]-2-(trifluoromethyl)-3-pyridyl]-2-(1,2,4-triazol-1-yl)ethanone], the chromatographic logP in series [1] (compounds of formula (VII)) came out at 2.23. Moreover, the pest or weed control at 500 ppm fell in the range of 80 to 89% in series [2], 90 to 100% in series [3], 90 to 100% in series [4] and 90 to 100% in series [5].
For the compound `CC(=O)c1ccc(Oc2ccc(Cl)nc2)nc1Cl` [V-03], the LogP in series [1] (compounds of formula (V)) was 2.66^[a].
Consider `OC(Cn1cncn1)c1cnc(Oc2ccc(Cl)nc2)cc1C(F)(F)F` (stereo not drawn) [I-14, 1-[6-[(6-chloro-3-pyridyl)oxy]-4-(trifluoromethyl)-3-pyridyl]-2-(1,24-triazol-1-yl)ethanol], for which the chromatographic logP in series [1] (compounds of formula (I)) was 1.99. For the same compound, the pest or weed control at 500 ppm in series [2], in series [3], in series [4], in series [5] and in series [6] was 90 to 100% throughout.
